Reference: patent publication US11293023B2, “Tunable endogenous protein degradation” (Dana-Farber Cancer Institute, Inc., priority 2015, dated 2022)

What was measured:
Type in all cases: cell-based
FKBP*-KRASG12V = assay: Immunoblot of FKBP*-KRASG12V (dTAG-KRAS) degradation in NIH3T3 cells
Protocol: (§1) FIG. 11 is an immunoblot of NIH3T3 cells expressing KRASG12V allele fused to FKBP* in the N-terminus or C-terminus. Cells were treated with 500 nM dFKBP7 for the indicated time. Cells were harvested and immunoblotted to measure degradation of FKBP*-KRASG12V and downstream surrogates of KRAS signaling (e.g. pMEK and pAKT).
(§2) FIG. 12 is an immunoblot of NIH3T3 cells expressing FKBP* fused to the N-terminus of KRASG12V treated with 1 uM of the indicated dFKBP heterobifunctional compounds for 24 hours. Cells were harvested and immunoblotted to measure degradation of FKBP*-KRASG12V and downstream surrogates of KRAS signaling (e.g. pMEK and pAKT).
as §2, with “FIG. 13” for “FIG. 12”, “with” for “with 1 uM of”, “indicated concentrations of dFKBP13” for “indicated dFKBP heterobifunctional compounds”
(§3) FIG. 14 is an immunoblot of NIH3T3 cells expressing FKBP* fused to the N-terminus of KRASG12V treated with 1 uM dFKBP13 for the indicated time. Cells were harvested and immunoblotted to measure degradation of FKBP*-KRASG12V and downstream surrogates of KRAS signaling (e.g. pMEK and pAKT).
FIG. 15 is an immunoblot of NIH3T3 cells expressing dTAG-KRASG12V pretreated with 1 uM Carfilzomib (proteasome inhibitor), 0.5 uM MLN4924 (neddylation inhibitor), and 10 uM Lenalidomide (CRBN binding ligand) for two hours prior to a 4 hour treatment with dFKBP13.
(§4) Cells were treated with 500 nM dFKBP7 for the indicated time. Cells were harvested and immunoblotted to measure degradation of FKBP*-KRAS and downstream surrogates of KRAS signaling (e.g. pMEK and pAKT).
(§5) In an effort to identify the best performing dFKBP molecule, dTAG-KRAS degradation was profiled across a series of dFKBP molecules. Western blotting of NIH3T3 cells expressing dTAG-KRASG12V were treated with 1 μM of the indicated dFKBP heterobifunctional compounds for 24 hours. Cells were harvested and immunoblotted to measure degradation of FKBP*-KRAS and downstream surrogates of KRAS signaling (e.g. pMEK and pAKT).
(§6) Western blotting of NIH3T3 cells expressing FKBP* fused to the N-terminus of KRAS treated with the indicated concentrations of dFKBP13 for 24 hours. Cells were harvested and immunoblotted to measure degradation of FKBP*-KRAS and downstream surrogates of KRAS signaling (e.g. pMEK and pAKT).
(§7) To evaluate the kinetic control of targeted degradation of dTAG-KRAS, dFKBP13 was administered by increased duration. Western blotting of NIH3T3 cells expressing FKBP* fused to the N-terminus of KRAS treated with 1 μM dFKBP13 for the indicated time. Cells were harvested and immunoblotted to measure degradation of FKBP*-KRAS and downstream surrogates of KRAS signaling (e.g. pMEK and pAKT).
NIH3T3 cells (CRBN-WT) were engineered to express dTAG-KRASG12V. Cells were pretreated with 1 uM Carfilzomib (proteasome inhibitor), 0.5 uM MLN4924 (neddylation inhibitor), and 10 uM Lenalidomide (CRBN binding ligand) for two hours prior to a 4 hour treatment with dFKBP13. Lysates were prepared and western immunoblot analysis performed. […] Pre-treatment with the NAE1 inhibitor MLN4924 rescued dTAG-KRASG12V expression establishing dependence on CRL activity, as expected for cullin-based ubiquitin ligases that require neddylation for processive E3 ligase activity. Pre-treatment with excess Lenalidomide abolished dFKBP13-dependent dTAG-KRASG12V degradation, confirming the requirement of CRBN engagement for degradation.

[1] = system: KRAS signaling (pMEK and pAKT); assay: Immunoblot of downstream surrogates of KRAS signaling in NIH3T3 cells expressing dTAG-KRAS; details: NIH3T3 FKBP*-KRASG12V, 1 uM, 24 hours
Protocol: as §1, §2
as §3, with “13” for “14”, “the indicated concentrations of” for “1 uM”, “24 hours.” for “the indicated time.”
as §3, §4, §5, §6, §7
(§8) The dFKBP13 heterobifunctional compound potently degrades dTAG-KRAS mutant alleles. NIH3T3 cells were engineered to express KRAS alleles either WT or mutant forms of amino acid glycine 12 (G12C, G12D, and G12V). Western blotting of NIH3T3 cells expressing dTAG fused to the N-terminus of KRAS alleles were treated with 1 uM of dFKBP13 for 24 hours. Cells were harvested and immunoblotted to measure degradation of dTAG-KRAS and downstream surrogates of KRAS signaling (e.g. pMEK and pAKT).
as §8, with “express” for “express KRAS alleles”, “KRAS alleles (G13D, Q61L,” for “forms of amino acid glycine 12 (G12C, G12D,”, “Q61R).” for “G12V).”

[2] = biological target: T1, FKBP* (FKBP12 F36V), HA-tagged (Homo sapiens, UniProt P62942, F37V); assay: Immunoblot of FKBP* degradation in 293FT cells (CRBN-WT or CRBN−/−)
T1 construct: expressed in transfected cells; host or cells: 293FT cells (CRBN-WT or CRBN-/-)
Protocol: 293FT cells (CRBN-WT or CRBN−/−) expressing either HA-tagged FKBP12WT or FKBP* were treated with indicated concentrations of dFKBP7 for 4 hours.
Isogenic 293FT cells (CRBN-WT or CRBN−/−) expressing either FKBP12WT or FKBP* were treated with 100 nM of either dFKBP7 or dFKBP13 for 4 hours.
Isogenic 293FT cells (CRBN-WT or CRBN−/−) expressing HA-tagged FKBP* were treated with the indicated dose of dFKBP13 for 4 hours.
(§9) 293FT cells (CRBN-WT) expressing FKBP* were pretreated with 1 uM Carfilzomib (proteasome inhibitor), 0.5 uM MLN4924 (neddylation inhibitor), and 10 uM Lenalidomide (CRBN binding ligand) for two hours prior to a 4 hour treatment with dFKBP13.
The dTAG is predicated on the selectivity of FKBP* specific ligands over endogenous, wild type FKBP. In 293T cells expressing wild type FKBP12 or FKBP*, dFKBP7 induces targeted degradation only in FKBP* expressing cells. […] 293FT cells (CRBN-WT or CRBN−/−) expressing either HA-tagged FKBP12WT or FKBP* were treated with indicated concentrations of dFKBP7 for 4 hours.
In 293T cells expressing wild type FKBP12 or FKBP*, treatment with dFKBP7 and dFKBP13 induces targeted degradation only in FKBP* expressing cells. Isogenic 293FT cells (CRBN-WT or CRBN−/−) were engineered to expressed either FKBP12WT or FKBP*. Cells were treated with 100 nM of either dFKBP7 or dFKBP13 for 4 hours before lysates were prepared for western immunoblot analysis.
In an effort to define the optimal concentration of dFKB13 heterobifunctional compound to induce degradation of FKBP*, degradation was measured upon treatment with increasing concentrations of dFKBP13. Isogenic 293FT cells (CRBN-WT or CRBN−/−) were engineered to expressed HA-tagged FKBP*. Cells were treated with the indicated dose of dFKBP13 for 4 hours before lysates were prepared for western immunoblot analysis.
as §9, with “were engineered to express FKBP*. Cells” for “expressing FKBP*”, “dFKBP13. Lysates were prepared and western immunoblot analysis performed.” for “dFKBP13.”

[3] = 10 uM Lenalidomide, two hours prior to a 4 hour treatment with dFKBP13
[4] = 1 uM Carfilzomib, two hours prior to a 4 hour treatment with dFKBP13
[5] = 0.5 uM MLN4924, two hours prior to a 4 hour treatment with dFKBP13

T1 sequence (P62942 2-108 F37V limits assumed): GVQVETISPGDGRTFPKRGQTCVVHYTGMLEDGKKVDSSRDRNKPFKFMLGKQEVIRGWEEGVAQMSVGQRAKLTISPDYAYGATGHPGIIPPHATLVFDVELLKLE

SMILES: CC[C@H](C(=O)N1CCCC[C@H]1C(=O)O[C@H](CCc1ccc(OC)c(OC)c1)c1cccc(OCC(=O)NCCCCCCCCNC(=O)COc2cccc3c2C(=O)N(C2CCC(=O)NC2=O)C3=O)c1)c1cc(OC)c(OC)c(OC)c1 (some centres unmarked) [dFKBP9]
- degradation of FKBP*-KRASG12V (FKBP*-KRASG12V; NIH3T3, 1 uM, 24 hours): potent degradation
- downstream signaling (pMEK and pAKT) [1]: inhibition of downstream signaling

SMILES: Nc1cccc2c1CN(C1CCC(=O)NC1=O)C2=O (centres unmarked) [Lenalidomide, reference compound]
- effect of pretreatment on dFKBP13-induced degradation of HA-tagged FKBP* [2, 3]: abolished
- effect of pretreatment on dFKBP13-induced degradation of dTAG-KRASG12V (FKBP*-KRASG12V; [3]): abolished

SMILES: CC(C)C[C@H](NC(=O)[C@H](CCc1ccccc1)NC(=O)CN1CCOCC1)C(=O)N[C@@H](Cc1ccccc1)C(=O)N[C@@H](CC(C)C)C(=O)[C@@]1(C)CO1 [Carfilzomib, reference compound]
- effect of pretreatment on dFKBP13-induced degradation of HA-tagged FKBP* [2, 4]: rescued
- effect of pretreatment on dFKBP13-induced degradation of dTAG-KRASG12V (FKBP*-KRASG12V; [4]): rescued

SMILES: NS(=O)(=O)OC[C@@H]1C[C@@H](n2ccc3c(N[C@H]4CCc5ccccc54)ncnc32)C[C@@H]1O [MLN4924, reference compound]
- effect of pretreatment on dFKBP13-induced degradation of HA-tagged FKBP* [2, 5]: rescued
- effect of pretreatment on dFKBP13-induced degradation of dTAG-KRASG12V (FKBP*-KRASG12V; [5]): rescued
